The text below walks through data of US20040034082A1, “Utilization of pyrazoline derivatives in the preparation of a medicament for the prevention and/or treatment of proliferative cell diseases” (priority 2001, published 2004).

As usually defined, the melting point is the temperature of the solid-liquid transition. In turn, `NS(=O)(=O)c1ccc(N2N=C(C(F)(F)F)CC2c2ccccc2Cl)cc1` (stereo not drawn) [Example 60] came in with a melting point of 157 to 159 °C.

With `NS(=O)(=O)c1ccc(C2CC(C(F)(F)F)=NN2c2ccc(F)cc2)cc1` (stereo not drawn) [Example 76], the melting point was 138 to 140 °C.

`Cc1ccc(N2N=C(C(F)(F)F)CC2c2ccc(S(C)(=O)=O)cc2)c(C)c1` (stereo not drawn) [Example 71] showed a melting point of 132 to 133 °C.

`CC1=NN(c2ccc(S(N)(=O)=O)cc2)C(c2ccc(C(F)(F)F)cc2)C1` (stereo not drawn) [Example 30] displayed a melting point of 190 to 194 °C.

`NS(=O)(=O)c1ccc(N2N=C(C(F)(F)F)CC2c2ccc(F)c(Cl)c2)cc1` (stereo not drawn) [Example 21]: the melting point is 171 to 173 °C.

The compound `COC(=O)C1=NN(c2ccc(S(N)(=O)=O)cc2)C(c2ccccc2)C1` (stereo not drawn) [Example 38] had a melting point of 84 to 90 °C.

On to `NS(=O)(=O)c1ccc(N2N=C(C(F)(F)F)CC2c2ccc(F)c(F)c2F)cc1` (stereo not drawn) [Example 51], for which the melting point lay in the range of 159 to 161 °C.

In the case of `COc1ccc(C2CC(C(F)(F)F)=NN2c2ccc(S(N)(=O)=O)cc2)cc1C` (stereo not drawn) [Example 45], the melting point was in the range of 170 to 175 °C.

On to `Cc1cc(Cl)ccc1N1N=C(C(F)(F)F)CC1c1ccc(S(C)(=O)=O)cc1` (stereo not drawn) [Example 68], for which the melting point was 104 to 108 °C.

`Cc1ccc(C2CC(C(F)(F)F)=NN2c2ccc(S(N)(=O)=O)cc2)c(F)c1` (stereo not drawn) [Example 63] registered a melting point of 166 to 167 °C.

`NS(=O)(=O)c1ccc(N2N=C(C(F)(F)F)CC2c2ccc(OC(F)(F)F)cc2)cc1` (stereo not drawn) [Example 22]: the melting point lay in the range of 134 to 137 °C.

As to `CS(=O)(=O)c1ccc(C2CC(C(F)(F)F)=NN2c2cccc(F)c2)cc1` (stereo not drawn) [Example 69], the melting point is 116 to 117 °C.

`CS(=O)(=O)c1ccc(N2N=C(C(F)(F)F)CC2c2ccccc2)cc1` (stereo not drawn) [Example 6]: the melting point was 137 to 140 °C.

`CC1=NN(c2ccc(S(C)(=O)=O)cc2)C(c2ccc(F)cc2)C1` (stereo not drawn) [Example 27] showed a melting point of 120 to 123 °C.

On to `Cc1ccc(C2CC(C(F)(F)F)=NN2c2ccc(S(N)(=O)=O)cc2)cc1` (stereo not drawn) [Example 1], for which the melting point fell in the range of 140 to 143 °C.

In the case of `CC1=NN(c2ccc(S(N)(=O)=O)cc2)C(c2ccc(F)cc2)C1` (stereo not drawn) [Example 26], the melting point lay in the range of 206 to 208 °C.

In the case of `COc1cc(F)ccc1C1CC(C(F)(F)F)=NN1c1ccc(S(N)(=O)=O)cc1` (stereo not drawn) [Example 49], the melting point fell in the range of 179 to 182 °C.

On to `CC1(c2ccccc2)CC(C(F)(F)F)=NN1c1ccc(S(N)(=O)=O)cc1` (stereo not drawn) [Example 2], for which the melting point lay within 60 to 66 °C.

In turn, `NS(=O)(=O)c1ccc(N2N=C(C(F)(F)F)CC2c2ccc(F)cc2C(F)(F)F)cc1` (stereo not drawn) [Example 58] gave a melting point of 174 to 177 °C.

Consider `NS(=O)(=O)c1ccc(N2N=C(C(F)(F)F)CC2c2ccc(F)cc2)cc1` (stereo not drawn) [Example 8], for which the melting point lay within 154 to 156 °C.

In the case of `Cc1c(F)cccc1C1CC(C(F)(F)F)=NN1c1ccc(S(N)(=O)=O)cc1` (stereo not drawn) [Example 55], the melting point was in the range of 193 to 195 °C.

`NS(=O)(=O)c1ccc(N2N=C(C(=O)O)CC2c2ccccc2)cc1` (stereo not drawn) [Example 35] returned a melting point of 157 to 164 °C.

Regarding `CS(=O)(=O)c1ccc(C2CC(C(F)(F)F)=NN2c2ccc(Cl)cc2)cc1` (stereo not drawn) [Example 65], the melting point lay in the range of 117 to 121 °C.

Regarding `Cc1ccc(C2CC(C(=O)O)=NN2c2ccc(S(C)(=O)=O)cc2)cc1` (stereo not drawn) [Example 36], the melting point was in the range of 202 to 205 °C.

In turn, `CC1=NN(c2ccccc2)C(c2ccc(S(C)(=O)=O)cc2)C1` (stereo not drawn) [Example 77] came in with a melting point of 132 to 135 °C.

`Cc1ccc(C2CC(C(F)F)=NN2c2ccc(S(N)(=O)=O)cc2)c(C)c1` (stereo not drawn) [Example 50] gave a melting point of 181 to 183 °C.

In turn, `Cc1ccccc1C1CC(C(F)(F)F)=NN1c1ccc(S(N)(=O)=O)cc1` (stereo not drawn) [Example 14] yielded a melting point of 124 to 126 °C.

Take `Cc1ccc(C2CC(C(F)(F)F)=NN2c2ccc(S(C)(=O)=O)cc2)cc1` (stereo not drawn) [Example 7]: the melting point lay in the range of 115 to 119 °C.

Turning to `NS(=O)(=O)c1ccc(N2N=C(C(F)(F)F)CC2c2ccc(Cl)cc2F)cc1` (stereo not drawn) [Example 61], the melting point fell in the range of 180 to 185 °C.

`Cc1cccc(N2N=C(C(F)(F)F)CC2c2ccc(S(C)(=O)=O)cc2)c1` (stereo not drawn) [Example 70]: the melting point lay in the range of 114 to 116 °C.

`COc1ccc(C2CC(C(F)(F)F)=NN2c2ccc(S(N)(=O)=O)cc2)cc1` (stereo not drawn) [Example 20] had a melting point of 125 to 128 °C.

`NS(=O)(=O)c1ccc(N2N=C(C(F)(F)F)CC2c2ccc(C(F)(F)F)cc2F)cc1` (stereo not drawn) [Example 53] yielded a melting point of 170 to 173 °C.

`NS(=O)(=O)c1ccc(N2N=C(C(F)(F)F)CC2c2cccc(F)c2)cc1` (stereo not drawn) [Example 18] registered a melting point of 132 to 133 °C.

Compound `CS(=O)(=O)c1ccc(N2N=C(C(F)(F)F)CC2c2ccc(F)cc2)cc1` (stereo not drawn) [Example 9] displayed a melting point of 121 to 122 °C.

Consider `COc1ccc(C2CC(C(F)(F)F)=NN2c2ccc(S(N)(=O)=O)cc2)c(F)c1` (stereo not drawn) [Example 47], for which the melting point fell in the range of 157 to 159 °C.

As to `NS(=O)(=O)c1ccc(N2N=C(C(F)(F)F)CC2c2ccccc2F)cc1` (stereo not drawn) [Example 16], the melting point is 166 to 168 °C.

`Cc1cc(F)ccc1C1CC(C(F)(F)F)=NN1c1ccc(S(N)(=O)=O)cc1` (stereo not drawn) [Example 62] gave a melting point of 154 to 160 °C.

In turn, `NS(=O)(=O)c1ccc(N2N=CCC2c2ccccc2)cc1` (stereo not drawn) [Example 31] registered a melting point of 206 to 208 °C.

Regarding `CS(=O)(=O)c1ccc(N2N=C(C(F)(F)F)CC2c2cccc(F)c2)cc1` (stereo not drawn) [Example 19], the melting point is 149 to 151 °C.

Compound `CS(=O)(=O)c1ccc(C2CC(C(F)(F)F)=NN2c2ccccc2F)cc1` (stereo not drawn) [Example 67] returned a melting point of 98 to 99 °C.

`NS(=O)(=O)c1ccc(N2N=C(C(F)(F)F)CC2c2ccc(F)cc2Cl)cc1` (stereo not drawn) [Example 52] came in with a melting point of 167 to 169 °C.

Consider `Cc1ccc(N2N=C(C(F)(F)F)CC2c2ccc(S(C)(=O)=O)cc2)cc1` (stereo not drawn) [Example 4], for which the melting point was 140 to 143 °C.

As for `CC1=NN(c2ccc(S(N)(=O)=O)cc2)C(c2ccc(C)cc2)C1` (stereo not drawn) [Example 28], the melting point lay in the range of 195 to 197 °C.

`NS(=O)(=O)c1ccc(N2N=C(C(F)(F)F)CC2c2ccc(C(F)(F)F)cc2C(F)(F)F)cc1` (stereo not drawn) [Example 54] gave a melting point of 212 to 214 °C.

Take `Cc1cccc(C2CC(C(F)(F)F)=NN2c2ccc(S(N)(=O)=O)cc2)c1` (stereo not drawn) [Example 15]: the melting point is 125 to 128 °C.

Turning to `NS(=O)(=O)c1ccc(N2N=C(C(F)F)CC2c2ccc(F)cc2F)cc1` (stereo not drawn) [Example 57], the melting point lay within 157 to 160 °C.

In turn, `Cc1ccc(C2CC(C(N)=O)=NN2c2ccc(S(N)(=O)=O)cc2)cc1` (stereo not drawn) [Example 41] returned a melting point of 210 to 215 °C.

On to `NS(=O)(=O)c1ccc(N2N=C(C(F)(F)F)CC2c2cccc(F)c2F)cc1` (stereo not drawn) [Example 23], for which the melting point is 152 to 154 °C.

`Cc1ccc(C2CC(C(F)(F)F)=NN2c2ccc(S(N)(=O)=O)cc2)c(C)c1` (stereo not drawn) [Example 24] yielded a melting point of 158 to 160 °C.

In turn, `CS(=O)(=O)c1ccc(N2N=CCC2c2ccccc2)cc1` (stereo not drawn) [Example 32] registered a melting point of 197 to 202 °C.

Consider `NS(=O)(=O)c1ccc(N2N=C(C(F)(F)F)CC2c2ccccc2)cc1` (stereo not drawn) [Example 5], for which the melting point was in the range of 156 to 157 °C.
